Key:
anesthetised pigs = test: Pharmacological investigation of 1,2-PDNO—R, 1,2-PDNO—S and 1,3-PDNO in anesthetised pigs; type: in vivo, pig; settings: pH approximately 8
From the text: Prior to experimentation, ethical approval was received from Linköping's regional animal ethics committee (Linköping, Sweden; approval number 953). In brief, 2 male and female pigs (a crossbreed between Swedish country breed, Hampshire and Yorkshire; 3-4 months old; 24-26 kg) were premedicated with azaperone at the farm and transported to the laboratory. At the laboratory, anaesthesia was induced with a mixture of tiletamine, zolazepam and azaperone (intramuscular injection). Propofol was given in a peripheral venous catheter in an ear vein, if needed. Bolus doses of atropine and cefuroxime were administered intravenously. The animals were endotracheally intubated and mechanically ventilated (5 cm H2O in positive end-expiratory pressure, minute ventilation was adjusted to normoventilation). General anaesthesia was maintained with propofol and fentanyl via continuous intravenous infusions, and additional bolus doses were given if needed. Ringer's acetate and glucose solutions were continuously administered intravenously to substitute for fluid loss. Heparin was given as an intravenous bolus dose after the surgical instrumentation. After the experiments the animals were killed in general anaesthesia with a propofol injection followed by a rapid intravenous injection of potassium chloride (40 mmol), and asystolia was confirmed.
The animals were instrumented with an arterial catheter in the right carotid artery for measurement of systemic arterial blood pressure and heart rate. A sheath was placed in the right external jugular vein for introduction of a pulmonary-arterial catheter. This catheter was used for continuous measurement of pulmonary arterial blood pressure, semi-continuous cardiac output and intermittent pulmonary wedge pressure. […] Respiratory gases, pressures and volumes were measured at the endotracheal tube. Respiratory and hemodynamic variables were measured by a Datex AS/3 (Helsinki, Finland) and data were collected by a computerised system (MP100 or MP150/Acknowledge 3.9.1, BIOPAC systems, Goleta, CA, USA). […]

[1] = Stability of non-aqueous mixtures of the nitrites in 1,2-propanediol (GC); type: physicochemical
Procedure: Three different concentrations of 1-(nitrosooxy)-propan-2-ol and 2-(nitrosooxy)-propan-1-ol in 1,2-propanediol were prepared and stored in both a refrigerator (5° C.) and freezer (−20° C.). Aliquots of each solution were taken periodically and analysed by GC to determine the concentration of 1-(nitrosooxy)-propan-2-ol and 2-(nitrosooxy)-propan-1-ol.
The results of the GC analysis are shown in the table below (column: Rxi-5Sil MS, 20 m×0.18 mm, […]; carrier: He; Inlet: 250° C., split ratio 100:1; constant flow: 1.0 mL/min; oven temperature profile: 40° C. (3 min), 10° C./min, 80° C. (0 min), 30° C./min, 250° C. (3 min); FID: 300° C., H2 flow 30 mL/min, air flow 400 mL/min, make-up flow (N2) 25 mL/min; internal standard: 1,1,1,3,5,5,5-heptamethyl trisiloxane): […]

[2] = tested on: anesthetised and mechanically ventilated pigs with U46619-induced pulmonary hypertension; test: In vivo study in pigs with U46619-induced pulmonary hypertension, PDNO infusion vs inhaled NO; settings: for mean pulmonary arterial pressure / pulmonary vascular resistance: median (interquartile range)
[3] = 10-15 min iv infusion (1,2-PDNO—R and —S 43, 1,3-PDNO 30 nmol kg^−1 min^−1) into sodium bicarbonate carrier
[4] = Freezer (−20° C.), 10 days, Low conc.
[5] = Freezer (−20° C.), 10 days, Medium conc.
[6] = Freezer (−20° C.), 14 days, High conc.
[7] = Freezer (−20° C.), 27 days, Low conc.
[8] = Freezer (−20° C.), 27 days, Medium conc.
[9] = Freezer (−20° C.), 28 days, High conc.
[10] = Freezer (−20° C.), 56 days, High conc.
[11] = Freezer (−20° C.), 64 days, Low conc.
[12] = Freezer (−20° C.), 64 days, Medium conc.
[13] = Freezer (−20° C.), 84 days, High conc.
[14] = Freezer (−20° C.), 84 days, Low conc.
[15] = Freezer (−20° C.), 84 days, Medium conc.
[16] = Freezer (−20° C.), Start, High conc.
[17] = Freezer (−20° C.), Start, Low conc.
[18] = Freezer (−20° C.), Start, Medium conc.
[19] = Refrigerator (5° C.), 10 days, Low conc.
[20] = Refrigerator (5° C.), 10 days, Medium conc.
[21] = Refrigerator (5° C.), 14 days, High conc.
[22] = Refrigerator (5° C.), 27 days, Low conc.
[23] = Refrigerator (5° C.), 27 days, Medium conc.
[24] = Refrigerator (5° C.), 28 days, High conc.
[25] = Refrigerator (5° C.), 56 days, High conc.
[26] = Refrigerator (5° C.), 64 days, Low conc.
[27] = Refrigerator (5° C.), 64 days, Medium conc.
[28] = Refrigerator (5° C.), 84 days, High conc.
[29] = Refrigerator (5° C.), 84 days, Low conc.
[30] = Refrigerator (5° C.), 84 days, Medium conc.
[31] = Refrigerator (5° C.), Start, High conc.
[32] = Refrigerator (5° C.), Start, Low conc.
[33] = Refrigerator (5° C.), Start, Medium conc.
[34] = U46619 infusion alone, data not shown
[35] = PDNO iv 15-60 nmol kg^−1 min^−1 or inhaled NO 5-40 ppm, during U46619
[36] = PDNO or inhaled NO during U46619, data not shown

Row | Compound | Concentration [1, 4] [% w/w] | Concentration [1, 5] [% w/w] | Concentration [1, 6] [% w/w] | Concentration [1, 7] [% w/w] | Concentration [1, 8] [% w/w] | Concentration [1, 9] [% w/w] | Concentration [1, 10] [% w/w] | Concentration [1, 11] [% w/w] | Concentration [1, 12] [% w/w] | Concentration [1, 13] [% w/w] | Concentration [1, 14] [% w/w] | Concentration [1, 15] [% w/w] | Concentration [1, 16] [% w/w] | Concentration [1, 17] [% w/w] | Concentration [1, 18] [% w/w] | Concentration [1, 19] [% w/w] | Concentration [1, 20] [% w/w] | Concentration [1, 21] [% w/w] | Concentration [1, 22] [% w/w] | Concentration [1, 23] [% w/w] | other results
1 | O=NOCCCO [1,3-PDNO, 1-(nitrosooxy)propan-3-ol] | – | – | – | – | – | – | – | – | – | – | – | – | – | – | – | – | – | – | – | – | Effect on mean pulmonary arterial pressure (anesthetised pigs; [3]): decreased; Effect on mean systemic arterial pressure (anesthetised pigs; [3]): decreased; Vasodilation (anesthetised pigs; 10-15 min iv infusion into sodium bicarbonate carrier): caused systemic and pulmonary vasodilation
2 | CC(O)CON=O (stereo not shown) [1-Nitrite, 1-(nitrosooxy)-propan-2-ol] | 0.08 | 0.81 | 3.76 | 0.07 | 0.74 | 3.72 | 3.55 | 0.07 | 0.74 | 3.50 | 0.08 | 0.78 | 3.75 | 0.08 | 0.81 | 0.08 | 0.86 | 3.72 | 0.09 | 0.81 | Concentration [1, 24]: 3.67 % w/w; Concentration [1, 25]: 3.47 % w/w; Concentration [1, 26]: 0.07 % w/w; Concentration [1, 27]: 0.73 % w/w; Concentration [1, 28]: 3.33 % w/w; Concentration [1, 29]: 0.07 % w/w; Concentration [1, 30]: 0.77 % w/w; Concentration [1, 31]: 3.75 % w/w; Concentration [1, 32]: 0.08 % w/w; Concentration [1, 33]: 0.81 % w/w
3 | CC(CO)ON=O (stereo not shown) [2-Nitrite, 2-(nitrosooxy)-propan-1-ol] | 0.06 | 0.63 | 2.89 | 0.06 | 0.57 | 2.93 | 2.74 | 0.06 | 0.58 | 2.71 | 0.06 | 0.62 | 2.94 | 0.06 | 0.61 | 0.06 | 0.67 | 2.91 | 0.07 | 0.63 | Concentration [1, 24]: 2.90 % w/w; Concentration [1, 25]: 2.69 % w/w; Concentration [1, 26]: 0.06 % w/w; Concentration [1, 27]: 0.57 % w/w; Concentration [1, 28]: 2.59 % w/w; Concentration [1, 29]: 0.06 % w/w; Concentration [1, 30]: 0.60 % w/w; Concentration [1, 31]: 2.94 % w/w; Concentration [1, 32]: 0.06 % w/w; Concentration [1, 33]: 0.61 % w/w
4 | CCCCCC(O)C=CC1C2CC(CO2)C1CC=CCCCC(=O)O (stereo not drawn) [U46619, 9,11-dideoxy-9α, 11α-methanoepoxy PGF2α] | – | – | – | – | – | – | – | – | – | – | – | – | – | – | – | – | – | – | – | – | Effect on arterial partial pressure of oxygen [2, 34]: slightly decreased; Effect on cardiac output [2, 34]: slightly decreased; mean pulmonary arterial pressure ([2]; during iv U46619 60-150 ng kg^−1 min^−1, before NO inhalation): 43 (37-48) mmHg; mean pulmonary arterial pressure ([2]; during iv U46619 60-150 ng kg^−1 min^−1, before PDNO infusion): 43 (41-46) mmHg; pulmonary vascular resistance ([2]; during iv U46619, before NO inhalation): 8.3 (6.7-11.7) mmHg min l^−1; pulmonary vascular resistance ([2]; during iv U46619, before PDNO infusion): 9.8 (7.7-12.5) mmHg min l^−1
5 | nitric oxide [inhaled NO] | – | – | – | – | – | – | – | – | – | – | – | – | – | – | – | – | – | – | – | – | Effect on pulmonary arterial pressure ([2]; PDNO iv 15-60 nmol kg^−1 min^−1 in sodium bicarbonate carrier or inhaled NO 5-40 ppm, during U46619): significantly reduced; Effect on methemoglobin concentration ([2]; PDNO iv 15-60 nmol kg^−1 min^−1 or inhaled NO 5-40 ppm, arterial blood): No drug significantly affected; Effect on mean arterial pressure [2, 35]: No drug significantly affected; Effect on pulmonary vascular resistance [2, 35]: significantly reduced; Effect on systemic vascular resistance [2, 35]: No drug significantly affected; Effect on arterial partial pressure of oxygen [2, 36]: increased this variable towards normal; Effect on cardiac output [2, 36]: no drug significantly changed; Pulmonary-to-systemic vascular resistances ratio compared to the PDNO group ([2]; at the highest doses, data not shown): slightly lower; Effect on pulmonary-to-systemic vascular resistances ratio ([2]; during U46619, data not shown): significantly decreased; Trend in methemoglobin concentration ([2]; inhaled NO group, associated to dose of delivered NO): tendency for an increase

Source: patent US12486216B2, “Processes for preparing nitrosylated propanediols, compositions comprising the same, and medical uses thereof” (ATTGENO AB, priority 2018, dated 2025)
